Measured values: publication PMC4156305, “Structure Driven Design of Novel Human Ether-A-Go-Go-Related-Gene Channel (hERG1) Activators” (PLoS ONE, 2014)
“Also recorded” adds a separate entry of the source.

How the values were obtained:
[1] = tested on: fetal mouse ventricular myocytes; test: Action potential recordings in neonatal (day 1) / fetal mouse ventricular myocytes; format: cell-based; conditions: 20 µM
Procedure: Action potentials were recorded from neonatal (day 1) mouse ventricular myocytes as previously reported. Although IKr has little physiologic importance to the action potential of the adult rodent heart, we previously reported that IKr is the dominant repolarizing current in day 1 neonatal myocytes, with little or no IKs. Thus, these neonatal cells are well suited to assess the physiologic relevance of blockade of IKr to the action potential characteristics. In contrast, to address the possibility that compounds inadvertently interact with other channels, action potentials were recorded from adult cardiac myocytes. Myocytes on glass coverslips were placed in a chamber mounted on a modified stage of an inverted microscope.

hERG1 E544L [2] = biological target: T1, hERG1 E544L (Homo sapiens, UniProt Q12809, E544L); test: Whole cell patch-clamp of hERG1 E544L mutant; format: cell-based; conditions: 10 µM
T1 construct: expressed in transfected cells; host or cells: HEK 293
Procedure: (§1) Transfected HEK cells on glass cover slips were placed in a chamber mounted on a modified stage of an inverted microscope. The chamber was superfused at a rate of 2 mL/min with a normal external solution. The extracellular solution contained (in mM) NaCl 140, KCl 5.4, CaCl2 1, MgCl2 1, HEPES 5, glucose 5.5, pH 7.4, with NaOH. Micropipettes were pulled from borosilicate glass capillary tubes on a programmable horizontal puller (Sutter Instruments, Novato, CA). Standard patch-clamp methods were used to measure the whole cell currents of hERG1 mutants expressed in HEK 293 cells using the AXOPATCH 200B amplifier (Axon Instruments). Unless otherwise indicated, tail currents were recorded when the voltage was returned to −50 mV from +50 mV. Further details on electrophysiological methods are collected in Methods S1.
(§2) Electrophysiology Protocol:
(§3) The pipette solution contained the following (at mM concentration): KCl 10, K-aspartate 110, MgCl2 5, Na2ATP 5, EGTA 10, HEPES 5, and CaCl2 1. The solution was adjusted to pH 7.2 with KOH. The extracellular solution contained the following (at mM concentration): NaCl 140, KCl 5.4, CaCl2 1, MgCl2 1, HEPES 5, and glucose 5.5. The solution was adjusted to pH 7.4 with NaOH. For IKr measurements, the whole cell configuration of the patch clamp method was used. The series resistance was less than 7
(§4) MΩ. The data were sampled at 1 kHz. The holding potential was -80 mV. The activation of hERG tail currents was induced by depolarization to a range of potentials from +50 to -100 mV in 10 mV steps for 1 second. This was followed by repolarization to -100 mV for 1 second to record the tail currents.
(§5) -100 mV, a -120 mV 1 second pre-pulse was applied to completely close the hERG channels before subsequent depolarization. All of the tail currents reported in this manuscript represent dofetilide-sensitive currents. The inactivation of hERG was measured by a previously reported triple-pulse protocol5, 6. The holding potential was -80 mV. The hERG channel was first depolarized to +50 mV for 1 second. Recovery from inactivation was achieved using a short pulse (a 10 ms hyperpolarization) to -120 mV, followed by the application of test pulses from -100 to 0 mV for 1 second in 10 mV steps.
(§6) A voltage of -100 mV was selected because it was on the flat part of the inactivation-voltage relationship. The methods employed are identical to ones previously reported. […]

hERG1 [3] = biological target: T2, hERG1 (Homo sapiens, UniProt Q12809); test: Whole cell patch-clamp of hERG1 currents in transfected HEK 293 cells; format: cell-based; set-up: Inactivation ΔV0.3: unit not given here; conditions: for Deactivation Δλ/λcon: deactivation time constant relative to baseline; for Activation V1/2 (mV): shift in voltage-dependence of activation; for Inactivation ΔV0.3: shift in voltage-dependence of inactivation; for Amplitude I/Icon: tail current relative to baseline
T2 construct: expressed in transfected cells; host or cells: HEK 293
Procedure: as §1, §2, §3, §4, §5, §6

hERG1 [4] = biological target: T2, hERG1; conditions: cited from earlier work
hERG1 E544L [5] = biological target: T1, hERG1 E544L; conditions: ref [7]–[12]; cited from earlier work
[6] = Conc. 2 µM, listed as MC-II-159c

Structure (SMILES): C[C@H](NCc1ccc(Br)cc1)C(=O)NC(=O)Nc1cc(C(F)(F)F)ccc1O [Compound 4]
- upstroke of the action potential, overshoot potential and excitability threshold [1]: affected the upstroke of the action potential, the overshoot potential and the excitability threshold
- response in amplitude of the tail current in E544L versus WT (hERG1 E544L [2]): markedly diminished
- pharmacologic responses (shift in voltage-dependence of activation, slowing of deactivation) in E544L versus WT (hERG1 E544L [2]; listed as MC-II-159c): significantly and substantially less pharmacologic responses; also recorded: significantly and substantially reduced
- lower drug concentration at which effects on deactivation were still manifest (hERG1 [3]): ~2 µM
- Deactivation Δλ/λcon (hERG1 [3]; Conc. 2 µM): 0.25±0.02
- Deactivation Δλ/λcon (hERG1 [3]; [6]): significantly prolonged deactivation
- Activation V1/2 (mV) (hERG1 [3]; Conc. 2 µM): −5±2 mV
- Inactivation ΔV0.3 (hERG1 [3]; Conc. 2 µM): −0.5±0.5
- Amplitude I/Icon (hERG1 [3]; Conc. 2 µM): 0.76±0.14
- Amplitude I/Icon (hERG1 [3]; [6]): 0.76
- Inactivation ΔV0.3 (hERG1 [3]; Conc. 10 µM): shifts voltage dependence to hyperpolarized potentials
- Deactivation Δλ/λcon (hERG1 [3]; Conc. 20 µM): 3.1±1.6
- Activation V1/2 (mV) (hERG1 [3]; Conc. 20 µM): −33±14 mV
- Inactivation ΔV0.3 (hERG1 [3]; Conc. 20 µM): −4.5±1.5
- Amplitude I/Icon (hERG1 [3]; Conc. 20 µM): 0.6±0.07
- Amplitude I/Icon (hERG1 [3]; Conc. 20 µM, listed as MC-II-159c): 0.6

Structure (SMILES): COCOc1ccc(C(F)(F)F)cc1NC(=O)NC(=O)[C@H](C)NCc1ccc(Br)cc1 [Compound 9]
- Deactivation Δλ/λcon (hERG1 [3]; Conc. 20 µM): −0.1±0.1
- Activation V1/2 (mV) (hERG1 [3]; Conc. 20 µM): −9.1±2.1 mV
- Inactivation ΔV0.3 (hERG1 [3]; Conc. 20 µM): −3.5±1.5
- Amplitude I/Icon (hERG1 [3]; Conc. 20 µM): 0.5±0.1

Structure (SMILES): COCOc1ccc(C(F)(F)F)cc1NC(=O)NC(=O)[C@H](C)NCc1ccc(F)cc1 [Compound 8]
- Deactivation Δλ/λcon (hERG1 [3]; Conc. 20 µM): −0.1±0.04
- Activation V1/2 (mV) (hERG1 [3]; Conc. 20 µM): −12.5±2.5 mV
- Inactivation ΔV0.3 (hERG1 [3]; Conc. 20 µM): −4±8
- Amplitude I/Icon (hERG1 [3]; Conc. 20 µM): 0.1±0.0

Structure (SMILES): O=C(Nc1cc(C(F)(F)F)ccc1O)Nc1cc(C(F)(F)F)ccc1O [NS1643]
- NS1643-induced increase in tail current amplitude (hERG1 [4]; WT, ref [7]–[12]): 13%
- NS1643-induced slowing of deactivation (hERG1 [4]; WT, ref [7]–[12]): 1.9 fold
- concentration increasing current density / tail current magnitude (hERG1 [4]; ref [7]): 10 µM
- concentration producing channel blockade (hERG1 [4]; ref [7]): 30 µM
- concentration that increases the magnitude of the tail current (hERG1 [4]; ref [13]): 10 µM
- concentrations that pharmacologically block the channel (hERG1 [4]; ref [13]): 20–30 µM
- NS1643-induced shift in the V1/2 of activation (hERG1 [4]; wild type (WT), ref [7]–[12]): −18±3 mV
- pharmacologic responses (shift in voltage-dependence of activation, slowing of deactivation) in E544L versus WT (hERG1 E544L [2]): exaggerated pharmacologic responses; also recorded: exaggerated response
- response in amplitude of the tail current in E544L versus WT (hERG1 E544L [2]): exaggerated
- Deactivation Δλ/λcon (hERG1 [3]; Conc. 10 µM): 1±0.4
- Activation V1/2 (mV) (hERG1 [3]; Conc. 10 µM): −21±2.3 mV
- Inactivation ΔV0.3 (hERG1 [3]; Conc. 10 µM): +6±0.6
- Amplitude I/Icon (hERG1 [3]; Conc. 10 µM): 1±0.04
- safety factor (hERG1 [3]; original safety factor, blockade versus activation): 3 fold
- NS1643-induced increase in tail current amplitude (hERG1 E544L [5]): 398%
- NS1643-induced shift in the V1/2 of activation (hERG1 E544L [5]): −24±3 mV
- NS1643-induced slowing of deactivation (hERG1 E544L [5]): 3.5 fold

Structure (SMILES): COCOc1ccc(C(F)(F)F)cc1NC(=O)NC(=O)[C@H](C)NC(=O)c1ccc([N+](=O)[O-])cc1 [Compound 12]
- Deactivation Δλ/λcon (hERG1 [3]; Conc. 20 µM): −0.1±0.1
- Activation V1/2 (mV) (hERG1 [3]; Conc. 20 µM): −6.3±2.7 mV
- Inactivation ΔV0.3 (hERG1 [3]; Conc. 20 µM): −7.3±1.9
- Amplitude I/Icon (hERG1 [3]; Conc. 20 µM): 0.6±0.19

Structure (SMILES): COCOc1ccc(C(F)(F)F)cc1NC(N)=O [Compound 21]
- Deactivation Δλ/λcon (hERG1 [3]; Conc. 50 µM): 0.02±0.1
- Activation V1/2 (mV) (hERG1 [3]; Conc. 50 µM): −1.3±2.4 mV
- Inactivation ΔV0.3 (hERG1 [3]; Conc. 50 µM): 0.7±3.7
- Amplitude I/Icon (hERG1 [3]; Conc. 50 µM): 0.9±0.04

Structure (SMILES): O=C(Nc1ccccc1)C1C(=O)Nc2ccccc21 (centres unmarked) [Compound 24]
- Deactivation Δλ/λcon (hERG1 [3]; Conc. 50 µM): 0.2±0.2
- Activation V1/2 (mV) (hERG1 [3]; Conc. 50 µM): −2.3±0.9 mV
- Inactivation ΔV0.3 (hERG1 [3]; Conc. 50 µM): 8±0
- Amplitude I/Icon (hERG1 [3]; Conc. 50 µM): 0.8±0.03
